Results reported in patent US20060009478A1, “Methods for the treatment of back pain” (priority 2003, published 2006).

Key:
[1] = Plasma concentrations of oxycodone, oxymorphone, noroxycodone, naltrexone and 6β-naltrexol by solid phase extraction LC-MS/MS
Text: Patients with moderate-to-severe pain due to osteoarthritis of the hip or knee were randomly assigned to one of four treatment groups as shown in Table 3 of Example 1. Plasma samples were obtained for each patient at the beginning of Weeks 1, 2, 3 and at the end of dosing during Week 3.
For the analysis of linearity and dose proportionality, linear equation coefficients were obtained by averaging patient-specific slopes and intercepts obtained by within-patient least squares regression. This was done to account for the correlation among the repeated measurements due to the patient's contributing data at each dose level. The resulting slopes among treatment groups were compared by one-way analysis of variance (ANOVA), and a one-sample t-test assessed the common slope's difference from zero. A measure of deviation from linearity was constructed as the difference between the concentration at the middle dose versus the average of the concentrations at the lower and higher doses. Due to equal spacing of doses, this measure has expectation zero under the hypothesis of linearity. As above, ANOVA and t-tests were used to assess linearity.
To achieve symmetry, modified log transformations were used.

[2] = system: patients with moderate to severe chronic pain due to osteoarthritis of the hip or knee; assay: WOMAC Osteoarthritis Index (pain, stiffness, physical function subscales, total score), 3-week osteoarthritis study; format: in vivo, human; settings: LOCF; for WOMAC osteoarthritis physical function subscale, actual value, mean / WOMAC osteoarthritis physical function subscale, actual value, median / WOMAC osteoarthritis stiffness subscale, actual value, mean / WOMAC osteoarthritis stiffness subscale, actual value, median / WOMAC osteoarthritis total score, actual value, mean / WOMAC osteoarthritis total score, actual value, median / WOMAC osteoarthritis pain subscale, actual value, mean / WOMAC osteoarthritis pain subscale, actual value, median: intent to treat population
Text: Back pain can be associated with an arthritic condition or inflammation associated with chronic conditions. […] The methods comprise administering to a human subject an amount of an opioid antagonist or the combination of an opioid agonist and an opioid antagonist that is effective to enhance potency of the agonist and/or to alleviate one or more symptoms or signs of an arthritic condition or inflammation associated with a chronic condition, including for example, as measured by a suitable index, scale or measure. The attenuation of one or more symptoms or signs of an arthritic condition or of inflammation associated with a chronic condition may be measured on the WOMAC Osteoarthritis Index or one of its subscales (in other words, the pain, stiffness, or physical function subscales of the WOMAC Osteoarthritis Index). Any suitable version of the WOMAC OA Index may be used, including, for example, Version 3.0 or Version 3.1. Any suitable scale may be used as well. The WOMAC OA Index is available in Likert and Visual Analog scaled formats, either of which may be employed in the present methods. […] The WOMAC values represent a subjective surrogate marker. Alternatively or additionally, the attenuation of one or more symptoms or signs may be measured on another suitable index, scale or measure, such the Australian/Canadian (AUSCAN) Osteoarthritis Hand Index or the Osteoarthritis Global Index (OGI). The AUSCAN 3.1 Index and User Guide are currently available from http://www.womac.org/contact/index.cfm, as are the WOMAC 3.1 Osteoarthritis Index and User Guide. Another suitable measure of attenuation is the Definition of Improvement in Rheumatoid Arthritis described in Felson et al., Arthritis & Rheumatism 38:727-735 (1995) incorporated herein by reference. This measure, which also may be designated as the ACR (American College of Rheumatology) 20 improvement, is a composite defined as both improvement of 20% in the number of tender and number of swollen joints, and a 20% improvement in three of the following five: patient global, physician global, patient pain, patient function assessment, and C-reactive protein (CRP). Another suitable measure is described by Paulus et al., Arthritis & Rheumatism 33:477-484 (1990) which is incorporated herein by reference. Paulus et al. provides a definition of improvement based on a set of measures that discriminate between active second-line drug treatment and placebo. These include a 20% improvement in morning stiffness, erythrocyte sedimentation rate (ESR), joint tenderness score, and joint swelling score and improvement by at least 2 grades on a 5-grade scale (or from grade 2 to grade 1) for patient and physician global assessments of current disease severity. Current disease severity can be measured in a variety of ways, including patient or physician global assessments, patient or physician assessments of joint tenderness, joint swelling stiffness, pain, or physical function, cytokine levels, B-cell or T-cell subtype ratios, erythrocyte sedimentation rate (ESR), or C-reactive protein. Suitable measures of attenuation of one or more symptoms or signs, of inhibiting the progression of an arthritic condition or chronic condition, or of reversing tissue or cellular damage include measuring current disease severity. Other indexes, definitions, measures, or scales may also be used for measuring attenuation of one or more symptoms or signs, inhibition of progression, or reversal of tissue or cellular damage.
A daily diary was to be utilized to record overall pain intensity (PI) and other signs and symptoms.

[3] = system: patients with moderate to severe chronic pain due to osteoarthritis of the hip or knee; assay: Global assessment of study medication, 3-week osteoarthritis study; format: in vivo, human
Description: Global Assessment of Study Medication was also assessed weekly at clinic visits. The patient was prompted with the question, “How would you rate the study medication you received this past week? (Please consider the quality of your pain relief, your side effects, your activity level, your mood and sense of well-being, etc. in this evaluation.)”. Responses were selected from poor, fair, good, very good, and excellent.
The global assessment, quality of analgesia, and pain control, recorded at the end of each week, were summarized in terms of category proportions.
For secondary analysis of data, pain intensity changes, SF-12, and WOMAC were analyzed with the ANOVA methods as described above. Within treatment arms, weeks were compared in pairwise fashion using paired-sample methods. The global assessments, quality of analgesia ratings, and pain control was analyzed at each week, globally and in pairwise fashion, using the Cocharan-Mantel-Haenszel row mean scores (CMH-RMS) test, using equally spaced scores. An “observed data” analysis, without any data imputation, was conducted on pain intensity changes, global assessments, quality of analgesia ratings, pain control, SF-12, and WOMAC using the same analysis methods described previously.

[4] = ITT (N = 102 per active group), LOCF

COc1ccc2c3c1O[C@H]1C(=O)CC[C@@]4(O)[C@@H](C2)N(C)CC[C@]314 [OXY QID, oxycodone]
Mean plasma concentration versus dose level over the course of the study ([1]; FIGS. 1 and 2): increased linearly with increasing dose levels | Plasma concentration of oxycodone (ng/mL) versus dose of oxycodone (mg/day): slope of linear equation ([1]; average of patient-specific regressions, slope p<0.001, t-test): 0.4223 | Plasma concentration of oxycodone versus dose of oxycodone (mg/day): intercept of linear equation ([1]; average of patient-specific within-patient least squares regressions, all active treatments): 2.28 ng/mL | WOMAC osteoarthritis pain subscale, actual value at Week 1, mean ([2]; ITT): 263.2 | WOMAC osteoarthritis pain subscale, actual value at Week 1, median ([2]; ITT): 279.0 | WOMAC osteoarthritis physical function subscale, actual value, mean ([2]; Week 1): 891.8 | WOMAC osteoarthritis physical function subscale, actual value, median ([2]; Week 1): 930.5 | WOMAC osteoarthritis stiffness subscale, actual value, mean ([2]; Week 1): 120.3 | WOMAC osteoarthritis stiffness subscale, actual value, median ([2]; Week 1): 129.5 | WOMAC osteoarthritis total score, actual value, mean ([2]; Week 1): 1275.3 | WOMAC osteoarthritis total score, actual value, median ([2]; Week 1): 1312.5 | WOMAC osteoarthritis pain subscale, actual value, mean ([2]; Week 2): 245.0 | WOMAC osteoarthritis pain subscale, actual value, median ([2]; Week 2): 227.5 | WOMAC osteoarthritis physical function subscale, actual value, mean ([2]; Week 2): 847.6 | WOMAC osteoarthritis physical function subscale, actual value, median ([2]; Week 2): 880.0 | WOMAC osteoarthritis stiffness subscale, actual value, mean ([2]; Week 2): 111.4 | WOMAC osteoarthritis stiffness subscale, actual value, median ([2]; Week 2): 119.5 | WOMAC osteoarthritis total score, actual value, mean ([2]; Week 2): 1204.0 | WOMAC osteoarthritis total score, actual value, median ([2]; Week 2): 1222.5 | WOMAC osteoarthritis pain subscale, actual value, mean ([2]; Week 3): 238.7 | WOMAC osteoarthritis pain subscale, actual value, median ([2]; Week 3): 225.0 | WOMAC osteoarthritis physical function subscale, actual value, mean ([2]; Week 3): 820.0 | WOMAC osteoarthritis physical function subscale, actual value, median ([2]; Week 3): 867.0 | WOMAC osteoarthritis stiffness subscale, actual value, mean ([2]; Week 3): 106.3 | WOMAC osteoarthritis stiffness subscale, actual value, median ([2]; Week 3): 109.0 | WOMAC osteoarthritis total score, actual value, mean ([2]; Week 3): 1164.9 | WOMAC osteoarthritis total score, actual value, median ([2]; Week 3): 1191.0 | Global assessment Week 1: EXCELLENT (4), number (%) of patients [3, 4]: 3 (2.9%) | Global assessment Week 1: FAIR (1), number (%) of patients [3, 4]: 37 (36.3%) | Global assessment Week 1: GOOD (2), number (%) of patients [3, 4]: 30 (29.4%) | Global assessment Week 1: POOR (0), number (%) of patients [3, 4]: 16 (15.7%) | Global assessment Week 1: VERY GOOD (3), number (%) of patients [3, 4]: 12 (11.8%) | Global assessment Week 2: EXCELLENT (4), number (%) of patients [3, 4]: 6 (5.9%) | Global assessment Week 2: FAIR (1), number (%) of patients [3, 4]: 29 (28.4%) | Global assessment Week 2: POOR (0), number (%) of patients [3, 4]: 16 (15.7%) | Global assessment Week 3: EXCELLENT (4), number (%) of patients [3, 4]: 6 (5.9%) | Global assessment Week 3: FAIR (1), number (%) of patients [3, 4]: 18 (17.6%) | Global assessment Week 3: GOOD (2), number (%) of patients [3, 4]: 36 (35.3%) | Global assessment Week 3: POOR (0), number (%) of patients [3, 4]: 24 (23.5%) | Global assessment Week 3: VERY GOOD (3), number (%) of patients [3, 4]: 14 (13.7%) | Patients reporting a global assessment of very good or excellent at Week 3 ([3]; Week 3): 19.6%
